EP3228630A1, “COMBINATION OF AN APELIN ANTAGONIST AND AN ANGIOGENESIS INHIBITOR FOR THE TREATMENT OF CANCER” (IMBA-Institut für Molekulare Biotechnologie GmbH, priority 2016, dated 2017)

Tested on: primary human endothelial cells (HUVECs)
Settings: Apelin Pyr13 500nM, human VEGF 25ng/mL, 5 minutes, serum-free media
Experimental: Antibody array pathway analysis: For the human phospho-kinase antibody array (R&D Systems), primary HUVEC (human umbilical vein endothelial cells) were cultured overnight with media supplemented with 0.75% of fetal bovine serum (FBS) followed by 15 minutes of media with 0.5%. The cells were then stimulated in serum-free media with either Apelin Pyr13 (BACHEM H-4568, 500nM), human VEGF (Peprotech, 25ng/mL), both of them or either for 5 minutes. 100 µg of cell lysate were added to the membrane and incubated overnight at 4°C with gentle agitation, following the manufacturer instructions. Films were scanned and the intensity of the bands quantified using ImageJ.

Substance: apelin-13
- pathways regulated (phospho-antibody array): regulate similar pathways in endothelial cells
